Test results published in paper PMC11910330, “Familial Alzheimer’s disease mutations in amyloid precursor protein impair calcineurin signaling to NMDA receptors” (The Journal of Biological Chemistry, 2024).

Test system: GluN1A/GluN2A NMDARs
Assay: Whole-cell recording of glutamate-evoked NMDAR currents in HEK 293 cells expressing GluN1A/GluN2A
Type: cell-based
Description: HEK 293 cells (ATCC Cat# CRL-1573) were obtained at passage 37 and used for a maximum of six passages. Cell cultures were maintained in Dulbecco’s modified Eagle’s medium (DMEM) with 10% fetal bovine serum (Life Technologies, Inc.) and penicillin/streptomycin (P/S). For electrophysiology, cells were plated at low density (∼50,000 cells/ml) on 15-mm round glass coverslips in 12-well plates. Cells were transfected using the Ca^2+ phosphate method with 1 μg of each construct per coverslip. For control cells, 0.3 μg of pEGFP (GenBank U55762.1) was included as a transfection marker. Epifluorescence was used to confirm the expression of the corresponding APP family members and APP FAD mutants. For biochemistry, HEK 293 cells were plated at ∼50% confluence on 10 cm dishes. HEK 293 cells were transfected by the Ca^2+ phosphate method. For these experiments, 4 μg of each construct was used, with 1 μg of mCherry (GenBank AY678264.1) used as a transfection marker. Experiments were performed 24 h after transfection.
Twenty-four hours after transfection, HEK 293 cells were visually selected for recording by GFP epifluorescence. […] whole-cell recordings of NMDA receptor currents were obtained with a Multiclamp 700A amplifier (Molecular Devices) and digitized through a Digidata 1332A using Clampex 10.3 software. Patch pipettes (2–5 MΩ for HEK 293 cells; 3–6 MΩ for neurons) contained (in mM) the following: 140 Cs methanesulfonate, 10 Hepes, five ATP (Na salt), 5 MgCl2, and 0.2 EGTA + 0.01 CaCl2 or 10 BAPTA + 0.2 CaCl2 (pH 7.4). QX-314 (2 mM) was included in the pipette solution for neuronal recordings to ensure the block of voltage-gated Na^+ currents. The extracellular solution contained (in mM) 150 NaCl, 5 KCl, 1.8 CaCl2, 10 Hepes, 11.1 glucose, 0.1 glycine (pH 7.4) and flowed at a rate of 1 to 2 ml/min. For neuronal recordings, this solution was supplemented with tetrodotoxin (0.3 μM), NBQX (10 μM), and picrotoxin (100 μM), to block voltage-gated Na^+ channels, AMPA receptors, and GABA receptors, respectively. HEK cells were lifted from the coverslip after establishment of the whole-cell configuration, to speed solution exchange, and placed ∼20 μm from the mouth of a series of flow pipes, which were controlled by solenoid valves and moved into position by a piezoelectric bimorph. With this configuration, solution exchanges were accomplished within 10 to 12 ms as assessed by the rise time (20–80%) of whole-cell agonist-evoked current responses. Flow pipes were lowered to within ∼50 μm of the surface of the coverslip and placed ∼100 to 150 μm from the soma of the cell. Currents were digitized at 2 kHz and filtered at 1 kHz. Series resistance (90–95% HEK cells; 60–70% neurons) and whole-cell capacitance compensation were employed, and input resistance was routinely monitored by 5 mV hyperpolarizing jumps between agonist applications. Cells showing sudden shifts in these parameters were discarded. Experiments were performed at a holding potential of −60 mV at 20 °C. Currents were elicited by a 3 s (5 s for neurons) application of glutamate (1 mM) in the extracellular recording solution. Desensitization was quantified as the ratio of average current remaining in the last 50 ms of the agonist application to the peak current using Clampfit 10.3 software. […] Current density was calculated by dividing the peak current by the compensated whole-cell capacitance.

| Compound | effect on NMDAR current amplitude (in words) (10 mM BAPTA in pipette, APP-expressing cells, within 1–3 min) | effect on NMDAR desensitization (in words) (10 mM BAPTA in pipette, GFP controls and APP-expressing cells) | effect on NMDAR current amplitude (in words) (10 mM BAPTA in pipette, GFP-expressing cells) | effect on NMDAR desensitization (in words) (CsA 1 μM, GFP-expressing cells, relative to untreated cells) | ss/p ratio in APP-expressing cells (in words) (CsA 1 μM, low intracellular EGTA) |
| --- | --- | --- | --- | --- | --- |
| O=C(O)CN(CC(=O)O)c1ccccc1OCCOc1ccccc1N(CC(=O)O)CC(=O)O [BAPTA] | increase in the amplitude of GluN1A/GluN2A currents | did not appear to modify the degree of NMDAR desensitization | declined in amplitude by a similar extent to that seen with low EGTA concentrations |  |  |
| cyclosporin A [CsA] |  |  |  | desensitization appeared modestly enhanced | no longer different (and modestly elevated) compared to GFP-expressing cells |
